1 compound from patent US12441757B2, “Platform for screening NAD+ binding proteins in a cellular context” (OREGON HEALTH & SCIENCE UNIVERSITY, priority 2020, dated 2025) can be followed below.

Each structure is given as a SMILES string.

This test concerns the target T1, PARP-10 (Homo sapiens, UniProt Q53GL7).
T1 construct: Full length His6-PARP-1 and His6-SUMO-PARP-10 proteins we expressed and purified; His6 (N); SUMO (N); made in house
T1 sequence (Q53GL7 1-1025): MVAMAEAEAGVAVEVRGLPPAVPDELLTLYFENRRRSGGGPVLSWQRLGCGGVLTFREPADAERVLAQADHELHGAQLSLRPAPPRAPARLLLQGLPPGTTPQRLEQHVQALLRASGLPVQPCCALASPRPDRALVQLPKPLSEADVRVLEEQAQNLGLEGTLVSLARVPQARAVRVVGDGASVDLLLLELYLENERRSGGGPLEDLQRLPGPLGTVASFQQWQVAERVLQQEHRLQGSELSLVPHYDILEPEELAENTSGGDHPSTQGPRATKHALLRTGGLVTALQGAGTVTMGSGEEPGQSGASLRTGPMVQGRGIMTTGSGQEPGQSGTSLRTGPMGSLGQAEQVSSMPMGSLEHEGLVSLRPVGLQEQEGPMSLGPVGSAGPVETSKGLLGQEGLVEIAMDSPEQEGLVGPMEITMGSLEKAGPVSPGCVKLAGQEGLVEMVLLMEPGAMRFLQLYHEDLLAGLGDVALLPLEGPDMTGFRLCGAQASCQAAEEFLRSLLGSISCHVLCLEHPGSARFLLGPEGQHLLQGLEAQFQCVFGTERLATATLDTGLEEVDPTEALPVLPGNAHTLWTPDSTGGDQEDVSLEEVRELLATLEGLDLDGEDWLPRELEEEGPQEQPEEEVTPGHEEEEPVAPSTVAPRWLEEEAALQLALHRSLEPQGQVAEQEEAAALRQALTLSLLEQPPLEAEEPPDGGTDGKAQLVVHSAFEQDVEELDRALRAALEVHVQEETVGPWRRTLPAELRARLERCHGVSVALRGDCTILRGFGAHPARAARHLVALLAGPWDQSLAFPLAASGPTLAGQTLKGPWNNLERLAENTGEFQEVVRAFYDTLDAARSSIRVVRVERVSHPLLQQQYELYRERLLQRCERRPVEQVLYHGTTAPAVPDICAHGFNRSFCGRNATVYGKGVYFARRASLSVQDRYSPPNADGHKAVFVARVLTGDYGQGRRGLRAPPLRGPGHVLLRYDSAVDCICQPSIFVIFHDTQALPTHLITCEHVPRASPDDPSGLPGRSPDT
Description: Competition labeling of PARP-10 by 2-ad-BAD. It is filed as binding. The source says:
FIG. 8. Densitometry analyses of FIG. 3A panels (A,B) comparing the inhibitory effect of nucleotides and (B) panels (C,D) comparing inhibitory effect of PARP inhibitors on PARP-1 and PARP-10 labelling by 2-ad-BAD. TAMRA in-gel fluorescence was normalized to Coomassie staining, except for PARP-1 NAD^+ treated samples where relative to control TAMRA signal is reported due to auto-PARylation induced molecular weight shift and therefore not detectable Coomassie signal at PARP-1 molecular weight of ˜110 kDa. Data are mean±SEM of 3 independent experiments.
Treatments. Recombinant PARP-1 (250 nM), PARP-10 (250 nM) or AK1 (500 nM; Novus Biologicals) were diluted in 100 mM NaCl, 50 mM HEPES [pH 7.4], 4 mM MgCl2, 0.2 mM TCEP. PARP-1 reactions also contained 10 μg/mL of activated calf thymus DNA (Sigma-Aldrich D4522), unless otherwise noted. In experiments reported in FIG. 2, the samples were treated with 0.1 μM 2-ad-BAD or ad-olaparib for 10 min. In competition experiments reported in FIG. 3 and Figure S3, samples were first treated with 150 μM of indicated nucleotides for 10 minute and then with 0.3 μM 2-ad-BAD for additional 10 min. All treatments occurred at RT. Samples were then kept in the dark or irradiated for 5 min in the RPR-100 Photochemical Reactor (Rayonet) equipped with 350 nm lamps at 4° C.
Click Chemistry. 25 μL of each sample was mixed with 5 μL of fatty acid free BSA and SDS to give a final Click reaction concentration of 1 mg/mL and 1%, respectively. Click reactions were started by adding 15 μL of PBS based 3× click reaction mix (final 1× concentrations shown): 100 μM Tris[(1-benzyl-1H-1,2,3triazol-4-yl)methyl]amine (TBTA, Click Chemistry Tools), 1 mM CuSO4, 40 μM tetramethylrhodamine (TAMRA)-azide (Click Chemistry Tools), 1 mM Tris(2-carboxyethyl)phosphine hydrochloride (TCEP, Thermo Fisher) and 5% tert-Butyl alcohol to each sample, and let to proceed for 1 h at RT while gently shaking. Reactions were stopped by adding 4× Laemmli sample buffer and boiling at 95° C. for 5 min.
In gel fluorescence and staining. Samples were loaded to 10 or 12% SDS-polyacrylamide gels and run until the dye front left the gel. In-gel fluorescence was detected with ChemiDoc XRS+ (Biorad) using Rhodamine filter and then the gels were stained with Coomassie blue or Silver using standard protocols.

For the compound `NC(=O)c1cccc([C@@H]2O[C@H](COP(=O)(O)OP(=O)(O)OC[C@H]3O[C@@H](n4cnc5c(N)ncnc54)[C@H](O)[C@@H]3O)[C@@H](O)[C@H]2O)c1` [BAD, benzamide adenine dinucleotide], the “block of 2-ad-BAD labeling of PARP-10 by nucleotides” value (150 μM nucleotide, 0.3 μM 2-ad-BAD) is reported as “reduced”. The “dose-dependent block of 2-ad-BAD labeling of PARP-10” value (competitor dose series) was “dose-dependently block the labeling of PARP-10”.
